Source: patent US20050239051A1, “Use of isogenic human cancer cells for high-throughput screening and drug discovery” (The Johns Hopkins University, priority 2001, published 2005)

What was measured:
mutant-RAS cell line = experiment: Growth inhibition assay with parental non-GFP cell lines plated separately, PicoGreen (FIG. 6); type: cell-based, human; conditions: range of concentrations, five days
Description: FIG. 6. Structure/activity ratios (SAR's) of compounds with structural homology to TPT. Growth inhibition assays were performed using parental (non-GFP modified) cell lines. Cells were plated separately at low density in 96 well plates and exposed to a range of test drug concentrations for five days. Cells were then lysed in H2O, and lysates assayed for relative cell number using the dsDNA-binding dye (PicoGreen).
Secondary screens on primary screen hits were performed as above except that a drug concentration range was used, typically extending from 30 ng/ml to 4 μg/ml. […] Assays using non-GFP modified cell lines were performed using cells plated separately rather than co-cultured. Plates were harvested each day for assessment of cell number using either an MTT assay or using the DNA-binding dye PicoGreen (Molecular Probes, Eugene, Oreg.). MTT assays were performed according to the manufacturers instructions (Trevigen, Gaithersburg, Md.). PicoGreen assays were performed by lysing cells in 96-well plates in 200 μl H2O, triturating and then transferring a 10 μl aliquot from each well to […] of PigoGreen solution (# P-7581) diluted to 0.5% vol/vol in Tris-EDTA (TE) buffer.

[1] = tested on: KO cells (DKS-8, mutant c-Ki-Ras allele deleted); experiment: Co-culture fluorescence growth inhibition screen, KO cells (YFP); type: cell-based, human; conditions: concentration and time course experiments, co-cultured cells (FIG. 5)
Description: (§1) FIG. 1. Schematic of drug screening format using co-cultured isogenic cells modified with spectrally distinct green fluorescent protein (GFP) variants. DLD-1 cells, harbouring a mutant c-Ki-RAS allele plus a wild-type (wt) c-Ki-RAS allele, were modified to stably express a GFP variant that is excited at 530 nm (YFP). An isogenic clone (KO) in which only the mutant c-Ki-RAS allele has been deleted (Adegboyega et al., Arch. Pathol. Lab. Med., 121:1063-68, 1997) was modified to express a GFP variant that is excited at 390 nm (BFP). These cells were mixed and plated at low density in 96-well plates. […] Plates were assayed every day for six days using a fluorescence plate reader to obtain growth curves for each cell line in every well of the plate.
(§2) FIG. 5. […] Growth curves were obtained from fluorescence at 390ex/508em (DLD-1) and 530ex/590em (KO). […]
(§3) Fluorescent cell lines were harvested by trypsinization and resuspended together as a mixture containing 22,000 cells/ml (DLD-1) and 18,000 cells/ml (KO) in DMEM media supplemented with 10% FCS (HyClone, Logan, Utah). […] Each well of column 1 contained […] of the growth medium without cells as a control for computing background fluorescence. […] Fluorometry data from each day's read were exported to a custom program (Drugmobile) for plotting the growth curves of each cell line in each well of the 96-well plate. […]

c-Jun kinases = experiment: In vitro kinase assay, c-Jun kinases; type: biochemical; conditions: in vitro kinase assays (data not shown)
Description: (§4) No anti-proliferative activity has previously been described for TPT. Tetrazole compounds such as TPT are commonly used as histological reagents that are reduced by cellular dehydrogenases in viable cells to a coloured formazan dye (Adegboyega et al., Arch. Pathol. Lab. Med., 121:1063-68, 1997, Otero et al., Cytotechnology, 6:137-42, 1991). However, no obvious staining of cells was observed using TPT at the concentrations used in the present assays. […] A previously identified inhibitor of p38 mitogen activated kinase (SB203580) (Cuenda et al., FEBS Lett., 364:229-33, 1995, Liverton et al., J. Med. Chem., 42:2180-90, 1999) was also noted to be structurally similar to TPT (FIG. 6). […] It is therefore unclear whether kinases represent cellular targets for TPT.

c-Raf-1 = c-Raf-1 (Homo sapiens, UniProt P04049); experiment: In vitro kinase assay, c-Raf-1; type: biochemical; conditions: in vitro kinase assays (data not shown)
Description: as §4

p38 = p38 (Homo sapiens, UniProt Q16539); experiment: In vitro kinase assay, p38; type: biochemical; conditions: in vitro kinase assays (data not shown)
Description: as §4

[2] = tested on: DLD-1 cells (mutant c-Ki-Ras); experiment: Co-culture fluorescence growth inhibition screen, DLD-1 cells (BFP); type: cell-based, human
Description: as §1, §2, §3

[3] = tested on: downstream components of the RAS pathway; conditions: previously shown (Cardenas 1998; Campbell 1994); cited from earlier work

Chain of c-Raf-1 (P04049 whole entry): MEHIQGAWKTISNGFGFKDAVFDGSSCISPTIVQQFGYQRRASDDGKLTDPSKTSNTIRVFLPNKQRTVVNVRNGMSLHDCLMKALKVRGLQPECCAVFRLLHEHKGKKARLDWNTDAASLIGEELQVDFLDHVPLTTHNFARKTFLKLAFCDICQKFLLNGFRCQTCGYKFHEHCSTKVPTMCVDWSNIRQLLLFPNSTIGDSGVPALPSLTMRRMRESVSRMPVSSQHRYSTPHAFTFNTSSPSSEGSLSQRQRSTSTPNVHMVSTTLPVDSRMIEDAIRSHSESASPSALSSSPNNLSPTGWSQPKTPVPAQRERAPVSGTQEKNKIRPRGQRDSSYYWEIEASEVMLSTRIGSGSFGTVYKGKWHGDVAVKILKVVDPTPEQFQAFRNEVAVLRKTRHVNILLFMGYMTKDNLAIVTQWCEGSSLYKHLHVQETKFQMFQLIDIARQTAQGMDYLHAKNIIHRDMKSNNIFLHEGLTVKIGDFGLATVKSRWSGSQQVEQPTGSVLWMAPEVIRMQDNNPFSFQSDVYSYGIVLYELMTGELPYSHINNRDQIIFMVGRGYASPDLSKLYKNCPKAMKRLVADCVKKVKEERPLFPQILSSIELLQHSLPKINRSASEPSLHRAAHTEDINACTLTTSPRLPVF
Chain of p38 (Q16539 whole entry): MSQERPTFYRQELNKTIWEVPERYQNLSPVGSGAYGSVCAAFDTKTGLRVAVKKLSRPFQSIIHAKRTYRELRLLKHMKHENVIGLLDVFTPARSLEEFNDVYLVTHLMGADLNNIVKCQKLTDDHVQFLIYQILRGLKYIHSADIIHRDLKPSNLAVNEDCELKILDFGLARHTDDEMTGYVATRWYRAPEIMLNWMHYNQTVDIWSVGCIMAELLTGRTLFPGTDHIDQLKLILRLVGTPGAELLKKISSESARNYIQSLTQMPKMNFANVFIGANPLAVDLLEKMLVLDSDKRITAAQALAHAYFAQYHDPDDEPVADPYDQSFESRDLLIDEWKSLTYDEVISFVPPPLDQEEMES

## C[S+]([O-])c1ccc(-c2nc(-c3ccncc3)c(-c3ccc(F)cc3)[nH]2)cc1 (centres unmarked) [SB203580]
mutant-RAS cell line
  selectivity towards the mutant RAS-containing line: failed to show selectivity

## c1ccc(-c2nn(-c3ccccc3)[n+](-c3ccccc3)n2)cc1 [TPT, Triphenyltetrazolium]
[1]
  IC50 on KO: ~12 µg/mL
c-Jun kinases
  inhibition of c-Jun kinases: little or no reproducible inhibition
c-Raf-1
  inhibition of c-Raf-1: little or no reproducible inhibition
p38
  inhibition of p38: little or no reproducible inhibition
[2]; DLD-1 versus KO
  selectivity for inhibiting the growth of the mutant c-Ki-RAS cell line (DLD-1): ~6 fold
[2]; concentration and time course experiments, co-cultured cells (FIG. 5)
  IC50 on DLD-1: ~2 µg/mL

## C[C@@]12c3ccc4c(c3C(=O)c3occ(c31)C(=O)C[C@H]2O)CCC4=O [demethoxyviridin]
[3]
  inhibition of downstream components of the RAS pathway: inhibit downstream components of the RAS pathway
